In patent US6509328B1, “Glutamate receptor antagonists” (Hoffmann-La Roche Inc., priority 1999, dated 2003):

Tests used:
rat mGlu2 receptor = biological target: T1, rat mGlu2 receptor (Rattus norvegicus, UniProt P31421); assay: [3H]-LY354740 binding on mGlu2 transfected CHO cell membranes
T1 construct: expressed in transfected cells; vector pcDNA I-amp (pcD1mGR2)
Source text: [^3H]-LY354740 Binding on mGlu2 Transfected CHO Cell Membranes
Transfection and Cell Culture
cDNA encoding the rat mGlu2 receptor protein in pBluescript II was obtained from Prof. S. Nakanishi (Kyoto, Japan), and subcloned into the eukaryotic expression vector pcDNA I-amp from Invitrogen (N V Leek, The Netherlands). This vector construct (pcD1mGR2) was co-transfected with a psvNeo plasmid encoding the gene for neomycin resistance, into CHO cells by a modified calcium phosphate method described by Chen & Okayama (1988). The cells were maintained in Dulbecco's Modified Eagle medium with reduced L-glutamine (2 mM final concentration) and 10% dialysed foetal calf serum from Gibco BRL (Basel, Switzerland). Selection was made in the presence of […] (1000 ug/ml final). Clones were identified by reverse transcription of 5 μg total RNA, followed by PCR using mGlu2 receptor specific primers 5′-[…]-3′ and 5′-[…]-3′ in 60 mM Tris HCl (pH 10), 15 mM (NH4)2SO4, 2 mM MgCl2, 25 units/ml Taq Polymerase with 30 cycles annealing at 60° C. for 1 min., extension at 72° C. for 30s, and 1 min. 95° C. denaturation.
Cells, cultured as above, were harvested and washed three times with cold PBS and frozen at −80° C. The pellet was resuspended in cold 20 mM HEPES-NaOH buffer containing 10 mM EDTA (pH 7.4), and homogenised with a polytron (Kinematica, AG, Littau, Switzerland) for 10s at 10,000 rpm. After centrifugation for 30 min. at 4° C., the pellet was washed once with the same buffer, and once with cold 20 mM HEPES-NaOH buffer containing 0.1 mM EDTA, (pH 7.4). Protein content was measured using the Pierce method (Socochim, Lausanne, Switzerland) using bovine serum albumin as standard.
After thawing, the membranes were resuspended in cold 50 mM Tris-HCl buffer containing 2 mM MgCl2 and 2 mM CaCl2, (pH 7) (binding buffer). The final concentration of the membranes in the assays was 25 μg protein/ml. Inhibition experiments were performed with membranes incubated with 10 nM [^3H]-LY354740 at room temperature, for 1 hour, in presence of various concentrations of the compound to be tested. Following the incubations, membranes were filtered onto Whatmann GF/C glass fiber filters and washed 5 times with cold binding buffer. Non specific binding was measured in the presence of 10 μM DCG IV (TOCRIS No. 0975). After transfer of the filters into plastic vials containing 10 ml of Ultima-gold scintillation fluid (Packard, Zürich, Switzerland), the radioactivity was measured by liquid scintillation in a Tri-Carb 2500 TR counter (Packard, Zürich, Switzerland).
The inhibition curves were fitted with a four parameter logistic equation giving IC50 values, and Hill coefficients.

T1 sequence (P31421 19-872): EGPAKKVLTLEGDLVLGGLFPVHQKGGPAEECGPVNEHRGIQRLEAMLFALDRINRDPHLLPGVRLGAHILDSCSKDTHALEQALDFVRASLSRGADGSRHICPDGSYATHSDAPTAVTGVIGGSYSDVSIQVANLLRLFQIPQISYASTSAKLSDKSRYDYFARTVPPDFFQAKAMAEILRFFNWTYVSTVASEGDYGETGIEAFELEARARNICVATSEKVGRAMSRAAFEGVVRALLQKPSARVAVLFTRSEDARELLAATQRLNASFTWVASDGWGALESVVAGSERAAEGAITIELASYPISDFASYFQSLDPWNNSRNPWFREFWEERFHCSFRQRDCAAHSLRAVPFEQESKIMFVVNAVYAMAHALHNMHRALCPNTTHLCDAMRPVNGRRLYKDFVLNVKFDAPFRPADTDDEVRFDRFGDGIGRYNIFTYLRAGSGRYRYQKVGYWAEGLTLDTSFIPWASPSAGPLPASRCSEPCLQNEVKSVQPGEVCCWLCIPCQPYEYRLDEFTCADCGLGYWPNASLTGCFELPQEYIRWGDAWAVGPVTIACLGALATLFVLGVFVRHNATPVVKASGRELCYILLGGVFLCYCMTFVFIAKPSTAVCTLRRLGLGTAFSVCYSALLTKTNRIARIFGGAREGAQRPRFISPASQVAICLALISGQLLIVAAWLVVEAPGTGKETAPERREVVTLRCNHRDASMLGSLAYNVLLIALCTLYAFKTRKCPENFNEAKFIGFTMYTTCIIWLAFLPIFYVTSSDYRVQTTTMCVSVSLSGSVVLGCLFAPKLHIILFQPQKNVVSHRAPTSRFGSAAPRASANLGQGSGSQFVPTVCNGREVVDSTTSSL

Compound	Ki (rat mGlu2 receptor)	melting point
N#Cc1cccc(C2=Nc3ccc(-c4ccc(F)cc4)cc3NC(=O)C2)c1 [Example 57, 3-[7-(4-Fluoro-phenyl)-4-oxo-4,5-dihydro-3H-benzo[b][1,4]diazepin-2-yl]-benzonitrile]	55 nM	–
O=C1CC(c2cccc(Cl)c2)=Nc2ccc(C#Cc3ccccc3)cc2N1 [Example 5, 4-(3-Chloro-phenyl)-8-phenylethynyl-1,3-dihydro-benzo[b][1,4]diazepin-2-one]	40 nM	–
N#Cc1cc(C2=Nc3ccc(C#Cc4ccccc4)cc3NC(=O)C2)ccn1 [Example 98, 4-(4-Oxo-7-phenylethynyl-4,5-dihydro-3H-benzo [b][1,4]diazepin-2-yl)-pyridine-2-carbonitrile]	39 nM	–
N#Cc1ccsc1C1=CC(=O)Nc2cc(-c3ccc(F)cc3)ccc2N1 [Example 83, 2-[7-(4-Fluoro-phenyl)-4-oxo-4,5-dihydro-1H-benzo [b][1,4]diazepin-2-yl]-thiophene-3-carbonitrile]	250 nM	239 to 240 °C
O=C1CC(c2cccc(-n3ccnc3)c2)=Nc2ccc(C#Cc3ccc(F)cc3)cc2N1 [Example 58, 8-(4-Fluoro-phenylethynyl)-4-(3-imidazol-1-yl-phenyl)-1,3-dihydro-benzo [b][1,4]diazepin-2-one]	4 nM	216 to 218 °C
O=C1CC(c2cccc(-n3ccnc3)c2)=Nc2ccc(C#Cc3ccccc3)cc2N1 [Example 52]	6 nM	193 to 196 °C
O=C1CC(c2cccc(-n3ccnc3)c2)=Nc2ccc(-c3ccc(F)cc3O)cc2N1 [Example 80, 8-(4-Fluoro-2-hydroxy-phenyl)-4-(3-imidazol-1-yl-phenyl)-1,3-dihydro-benzo[b][1,4]diazepin-2-one]	170 nM	220 °C
Cc1cc(F)ccc1-c1ccc2c(c1)NC(=O)CC(c1cccc(-n3ccnc3)c1)=N2 [Example 79, 8-(4-Fluoro-2-methyl-phenyl)-4-(3-imidazol-1-yl-phenyl)-1,3-dihydro-benzo[b][1,4]diazepin-2-one]	50 nM	170 to 172 °C
N#Cc1cccc(C2=Nc3ccc(I)cc3NC(=O)C2)c1 [Example 1, 3-(7-Iodo-4-oxo-4,5-dihydro-3H-benzo[b][1,4]diazepin-2-yl)-benzonitrile]	17 nM	198 to 200 °C (dec.)
O=C1CC(c2ccnc(-n3ccnc3)c2)=Nc2ccc(C#Cc3ccc(F)cc3)cc2N1 [Example 68, 8-(4-Fluoro-phenylethynyl)-4-(2-imidazol-1-yl-pyridin-4-yl)-1,3-dihydro-benzo[b][1,4]diazepin-2-one]	4 nM	206 °C (dec.)
Cc1cn(-c2cccc(C3=Nc4ccc(-c5ccc(F)cc5)cc4NC(=O)C3)c2)cn1 [Example 76, 8-(4-Fluoro-phenyl)-4-[3-(4-methyl-imidazol-1-yl)-phenyl]-1,3-dihydro-benzo [b][1,4]diazepin-2-one]	16 nM	215 °C
O=C1CC(c2cccc(-n3cncn3)c2)=Nc2ccc(C#Cc3ccc(F)cc3)cc2N1 [Example 62, 8-(4-Fluoro-phenylethynyl)-4-(3-[1,2,4]triazol-1-yl-phenyl)-1,3-dihydro-benzo[b][1,4]diazepin-2-one]	49 nM	217 to 218 °C
O=C1CC(c2cccc(-n3cnnn3)c2)=Nc2ccc(C#Cc3ccc(F)cc3)cc2N1 [Example 87, 8-(4-Fluoro-phenylethynyl)-4-(3-tetrazol-1-yl-phenyl)-1,3-dihydro-benzo [b][1,4]diazepin-2-one]	36 nM	–
O=C1CC(c2cccc(-n3cnnn3)c2)=Nc2ccc(-c3ccccc3F)cc2N1 [Example 88, 8-(2-Fluoro-phenyl)-4-(3-tetrazol-1-yl-phenyl)-1,3-dihydro-benzo [b][1,4]diazepin-2-one]	–	179 to 180 °C

Other lines, results leading:

Ki (rat mGlu2 receptor)	melting point	Compound
10 nM	–	O=C1CC(c2cccc(-n3ccnn3)c2)=Nc2ccc(-c3ccc(F)cc3F)cc2N1 [Example 123, 8-(2,4-Difluoro-phenyl)-4-(3-[1,2,3]triazol-1-yl-phenyl)-1,3-dihydro-benzo [b][1,4]diazepin-2-one]
289 nM	> 250 °C	Cc1cc(-c2cccc(C3=Nc4ccc(-c5ccc(F)cc5)cc4NC(=O)C3)c2)on1 [Example 117, 8-(4-Fluoro-phenyl)-4-[3-(3-methyl-isoxazol-5-yl)-phenyl]-1,3-dihydro-benzo[b][1,4]diazepin-2-one]
16 nM	–	O=C1CC(c2cccc(-c3nc(CO)cs3)c2)=Nc2ccc(-c3ccccc3F)cc2N1 [Example 157, 8-(2-Fluoro-phenyl)-4-[3-(4-hydroxymethyl-thiazol-2-yl)-phenyl]-1,3-dihydro-benzo[b][1,4]diazepin-2-one]
13 nM	–	O=C1CC(c2cccc(-n3ccnn3)c2)=Nc2ccc(-c3cccc(F)c3F)cc2N1 [Example 129, 8-(2,3-Difluoro-phenyl)-4-(3-[1,2,3]triazol-1-yl-phenyl)-1,3-dihydro-benzo[b][1,4]diazepin-2-one]
8 nM	–	O=C1CC(c2cccc(-n3ccnn3)c2)=Nc2ccc(-c3ccccc3F)cc2N1 [Example 110, 8-(2-Fluoro-phenyl)-4-(3-[1,2,3]triazol-1-yl-phenyl)-1,3-dihydro-benzo [b][1,4]diazepin-2-one]
108 nM	238 to 240 °C (dec.)	Cc1nnc(-c2cccc(C3=Nc4ccc(-c5ccc(F)cc5)cc4NC(=O)C3)c2)n1C [Example 166, 4-[3-(4,5-Dimethyl-4H-[1,2,4]triazol-3-yl)-phenyl]-8-(4-fluoro-phenyl)-1,3-dihydro-benzo[b][1,4]diazepin-2-one]
298 nM	194 to 197 °C	O=C1CC(c2csc(-n3ccnc3)n2)=Nc2ccc(-c3ccccc3F)cc2N1 [Example 124, 8-(2-Fluoro-phenyl)-4-(2-imidazol-1-yl-thiazol-4-yl)-1,3-dihydro-benzo [b][1,4]diazepin-2-one]
26 nM	250 to 253 °C	N#Cc1cc(C2=Nc3ccc(-c4ccc(F)cc4F)cc3NC(=O)C2)ccn1 [Example 104, 4-[7-(2,4-Difluoro-phenyl)-4-oxo-4,5-dihydro-3H-benzo [b][1,4]diazepin-2-yl]-pyridine-2-carbonitrile]
16 nM	–	O=C1CC(c2cccc(-c3nc(C(=O)O)cs3)c2)=Nc2ccc(-c3ccccc3F)cc2N1 [Example 160, 2-{3-[7-(2-Fluoro-phenyl)-4-oxo-4,5-dihydro-3H-benzo [b][1,4]diazepin-2-yl]-phenyl}-thiazole-4-carboxylic Acid]
